Assay results from US20240383905A1, “FGFR INHIBITORS AND METHODS OF USE THEREOF” (3H PHARMACEUTICALS CO., LTD., priority 2021, published 2024).
Read-outs that look alike come from different tables or passages of the source.

Assays:
FGFR1 = target: T1, FGFR1 (Homo sapiens, UniProt P11362); test: FGFR1 Biochemical Caliper Assay (KinEASE-TK kit); conditions: ratio FGFR1/FGFR2 of the biochemical assay
T1 construct: purchased Carna 08-133
Procedure: (§1) Compounds of the present invention were tested in a FGFR1, FGFR2, and FGFR3 Biochemical Caliper Assay. Enzyme activity was monitored using KinEASE-TK kit (CisBio, Cat.No. 62TK0PEC) according to manufacturer's instructions. […] Final enzyme concentration was 0.2 nM for FGFR1 and FGFR3, 0.07 nM for FGFR2. Compounds were prepared in 10 mM DMSO and serially diluted into 10 concentrations by 3-fold dilution. Prior to the initiation of the reaction by adding TK-substrate/ATP mixture, the compounds were incubated with protein for 10 min at RT. […] Plates were quenched by adding TK-antibody-Cryptate and Sa-XL665 mixture. After 60 min in the stop solution, read the signal on microplate reader (Molecular Devices, i3x), excitation of 320 nm and emission of 615 nm and 665 nm with a […]. IC50 values were calculated using Prism 7 (GraphPad).

FGFR2 = target: T2, FGFR2 (Homo sapiens, UniProt P21802); test: FGFR2 Biochemical Caliper Assay (KinEASE-TK kit); conditions: 0.07 nM FGFR2; compound incubated with protein 10 min, reaction 45 min at RT; read-out: FGFR2 Cliper IC50
T2 construct: purchased Carna 08-134
T2 sequence (P21802 22-821): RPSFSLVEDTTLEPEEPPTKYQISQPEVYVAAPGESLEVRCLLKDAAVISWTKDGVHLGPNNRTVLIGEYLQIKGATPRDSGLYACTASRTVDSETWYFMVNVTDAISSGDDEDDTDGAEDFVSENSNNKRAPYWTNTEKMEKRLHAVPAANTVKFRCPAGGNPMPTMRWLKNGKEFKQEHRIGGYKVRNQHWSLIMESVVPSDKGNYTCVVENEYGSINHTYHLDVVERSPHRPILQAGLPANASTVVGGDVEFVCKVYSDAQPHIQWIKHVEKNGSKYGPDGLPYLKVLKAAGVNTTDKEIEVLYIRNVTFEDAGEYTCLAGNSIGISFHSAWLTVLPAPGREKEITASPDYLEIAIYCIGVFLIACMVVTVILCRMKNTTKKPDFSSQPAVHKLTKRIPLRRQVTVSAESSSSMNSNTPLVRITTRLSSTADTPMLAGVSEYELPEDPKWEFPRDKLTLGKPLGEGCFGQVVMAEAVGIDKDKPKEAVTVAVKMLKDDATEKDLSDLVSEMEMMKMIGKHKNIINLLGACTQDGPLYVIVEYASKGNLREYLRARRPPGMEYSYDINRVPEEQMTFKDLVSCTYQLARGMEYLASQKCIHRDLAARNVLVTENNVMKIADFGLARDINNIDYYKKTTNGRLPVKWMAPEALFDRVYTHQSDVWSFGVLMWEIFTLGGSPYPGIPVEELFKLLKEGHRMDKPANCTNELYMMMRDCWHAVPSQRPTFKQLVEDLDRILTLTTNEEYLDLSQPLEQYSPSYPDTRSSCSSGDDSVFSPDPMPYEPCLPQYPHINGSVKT
Procedure: Compounds of the present invention were tested in a FGFR1, FGFR2, and FGFR3 Biochemical Caliper Assay.
as §1, with “Enzyme” for “Compounds of the present invention were tested in a FGFR1, FGFR2, and FGFR3 Biochemical Caliper Assay. Enzyme”

SNU16 cells = test: SNU16 Cancer Cell Line Proliferation Assay (CellTiter-Glo); format: cell-based
Procedure: Compounds of the present invention were also tested in a SNU16 Cancer Cell Line Proliferation Assay.
SNU16 cells were plated in 96-well clear bottom/white plate(Costar, Cat.No. 3610) at 5000 cells/well in 100 μl medium. Test compounds were prepared in a 10 mM DMSO stock solution and serially diluted into 9 concentrations by 3-fold dilution. 0.5 μl of each concentration of compound was added into the cell culture plates and DMSO as a control. The plates were incubated for 72 h at 37° C. and 5% CO2 incubator. 50 μl CellTiter-Glo reagent (Promega, G7572) was added into each well and then the plates were shaken gently for 10 min at room temperature. Luminescence was read on microplate reader (Molecular Devices, i3x), IC50 values were calculated using Prism 7 (GraphPad).

FGFR3 = target: T3, FGFR3 (Homo sapiens, UniProt P22607); test: FGFR3 Biochemical Caliper Assay (KinEASE-TK kit); conditions: ratio FGFR3/FGFR2 of the biochemical assay
T3 construct: purchased Carna 08-135
T3 sequence (P22607 23-806): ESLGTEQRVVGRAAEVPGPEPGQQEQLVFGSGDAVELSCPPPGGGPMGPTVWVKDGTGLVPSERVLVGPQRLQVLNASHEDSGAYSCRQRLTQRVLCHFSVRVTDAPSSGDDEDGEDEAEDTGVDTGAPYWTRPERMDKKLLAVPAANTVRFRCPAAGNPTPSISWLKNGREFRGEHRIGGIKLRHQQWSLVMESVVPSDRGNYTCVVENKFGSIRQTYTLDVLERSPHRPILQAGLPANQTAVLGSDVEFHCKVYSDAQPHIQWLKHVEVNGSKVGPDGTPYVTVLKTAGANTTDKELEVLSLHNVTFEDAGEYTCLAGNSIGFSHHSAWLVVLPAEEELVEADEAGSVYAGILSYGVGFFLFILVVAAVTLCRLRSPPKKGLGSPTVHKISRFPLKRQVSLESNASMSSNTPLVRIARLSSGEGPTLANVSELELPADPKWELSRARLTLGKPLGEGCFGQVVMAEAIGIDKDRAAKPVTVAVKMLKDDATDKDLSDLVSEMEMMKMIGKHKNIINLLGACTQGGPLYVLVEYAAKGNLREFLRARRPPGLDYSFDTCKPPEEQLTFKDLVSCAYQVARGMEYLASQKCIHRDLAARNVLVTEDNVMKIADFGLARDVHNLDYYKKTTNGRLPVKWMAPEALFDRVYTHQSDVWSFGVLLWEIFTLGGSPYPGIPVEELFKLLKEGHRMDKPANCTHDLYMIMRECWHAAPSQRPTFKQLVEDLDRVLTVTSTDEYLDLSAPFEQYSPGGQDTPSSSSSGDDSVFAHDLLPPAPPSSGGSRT
Procedure: as §1

T1 sequence (P11362 22-822): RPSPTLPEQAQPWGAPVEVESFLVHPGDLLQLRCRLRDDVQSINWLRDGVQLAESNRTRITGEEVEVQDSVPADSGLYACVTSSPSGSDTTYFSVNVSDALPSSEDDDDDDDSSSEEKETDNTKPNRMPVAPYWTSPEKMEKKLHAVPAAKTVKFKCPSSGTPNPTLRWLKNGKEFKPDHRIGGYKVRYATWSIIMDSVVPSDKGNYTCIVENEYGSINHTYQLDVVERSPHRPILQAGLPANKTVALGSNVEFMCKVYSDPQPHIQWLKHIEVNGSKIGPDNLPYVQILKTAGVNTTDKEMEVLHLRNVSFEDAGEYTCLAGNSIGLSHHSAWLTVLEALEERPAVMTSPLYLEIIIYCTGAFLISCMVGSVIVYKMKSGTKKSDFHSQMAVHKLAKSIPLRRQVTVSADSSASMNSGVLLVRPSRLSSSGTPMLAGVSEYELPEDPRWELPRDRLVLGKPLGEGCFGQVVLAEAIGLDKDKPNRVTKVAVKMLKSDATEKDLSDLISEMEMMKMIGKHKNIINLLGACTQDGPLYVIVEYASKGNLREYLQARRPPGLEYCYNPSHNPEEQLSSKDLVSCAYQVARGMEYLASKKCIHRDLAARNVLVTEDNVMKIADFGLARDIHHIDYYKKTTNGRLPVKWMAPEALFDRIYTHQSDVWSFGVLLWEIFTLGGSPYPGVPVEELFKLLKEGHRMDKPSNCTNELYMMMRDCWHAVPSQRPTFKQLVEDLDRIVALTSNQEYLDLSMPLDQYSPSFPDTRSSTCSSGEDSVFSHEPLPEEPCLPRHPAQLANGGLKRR

IC50 (FGFR2) [nM]	IC50 (SNU16 cells; Homo sapiens, SNU-16, 72 h) [nM]	IC50 (SNU16 cells; 72 h, read-out: Cell SNU-16 IC50) [nM]	Structure (SMILES)	Selectivity FGFR1/FGFR2 (FGFR1)	Selectivity FGFR3/FGFR2 (FGFR3)
< 5	≤ 10		C=CC(=O)Nc1ccc(-c2nn3ncnc(N)c3c2-c2ccc(C(=O)NCC(F)(F)F)c(OC)c2)cc1 [Compound 42, 4-(6-(4-acrylamidophenyl)-4-aminopyrazolo[5,1-f] [1,2,4]triazin-5-yl)-2-methoxy-N-(2,2,2-trifluoroethyl)benzamide]	A (Selectivity of FGFR1/FGFR2 less than 500 but greater than or equal to 300)	A (Selectivity of FGFR3/FGFR2 less than 150 but greater than or equal to 100)
5 to 10	≤ 10		C=C(C)C(=O)Nc1ccc(-c2c(-c3ccc(Oc4nccc(C)n4)cc3)c3c(N)ncc(C#N)c3n2C)c(Cl)c1 [Compound 474, N-(4-(4-amino-7-cyano-1-methyl-3-(4-((4-methylpyrimidin-2-yl)oxy)phenyl)-1H-pyrrolo[3,2-c]pyridin-2-yl)-3-chlorophenyl)methacrylamide]	A+ (Selectivity of FGFR1/FGFR2 greater or equal to 500)	A+ (Selectivity of FGFR3/FGFR2 greater or equal to 150)
< 5	≤ 10		C=CC(=O)Nc1ccc(-c2c(-c3ccc(C(=O)NC4CC4(F)F)c(OC)c3)c3c(N)ncc(C#N)c3n2C)cc1 (stereo not shown) [Compound 167, 4-(2-(4-acrylamidophenyl)-4-amino-7-cyano-1-methyl-1H-pyrrolo[3,2-c]pyridin-3-yl)-N-(2,2-difluorocyclopropyl)-2-methoxybenzamide]	A (Selectivity of FGFR1/FGFR2 less than 500 but greater than or equal to 300)	B (Selectivity of FGFR3/FGFR2 less than 100 but greater than or equal to 25)
< 5		≤ 10	C=C(F)C(=O)Nc1ccc(-c2nn3ncnc(N)c3c2-c2ccc(C(=O)NCC3(C(F)(F)F)CC3)c(OC)c2)c(F)c1 [Compound 358, 4-(4-amino-6-(2-fluoro-4-(2-fluoroacrylamido)phenyl)pyrazolo[5,1-f] [1,2,4]triazin-5-yl)-2-methoxy-N-((1-(trifluoromethyl)cyclo-propyl)methyl) benzamide]	A+ (Selectivity of FGFR1/FGFR2 greater or equal to 500)	A (Selectivity of FGFR3/FGFR2 less than 150 but greater than or equal to 100)
> 10	≤ 10		C=CC(=O)Nc1ccc(-c2nn3ncnc(N)c3c2-c2ccc(NC(=O)C3CC3(F)F)c(OC)c2)cc1 (stereo not shown) [Compound 339, N-(4-(6-(4-acrylamidophenyl)-4-aminopyrazolo[5,1-f][1,2,4]triazin-5-yl)-2-methoxyphenyl)-2,2-difluorocyclopropane-1-carboxamide]	C (Selectivity of FGFR1/FGFR2 less than 200 but greater than or equal to 100)	B (Selectivity of FGFR3/FGFR2 less than 100 but greater than or equal to 25)

Second part, the compound before the results:

Structure (SMILES)	IC50 (FGFR2) [nM]	IC50 (SNU16 cells; Homo sapiens, SNU-16, 72 h) [nM]	IC50 (SNU16 cells; 72 h, read-out: Cell SNU-16 IC50) [nM]	Selectivity FGFR1/FGFR2 (FGFR1)	Selectivity FGFR3/FGFR2 (FGFR3)
[2H]C([2H])([2H])Oc1cc(-c2c(-c3ccc(NC(=O)C(=C)F)cc3)nn3ncnc(N)c23)ccc1C(=O)NCC1(F)CC1 [Compound 372, 4-(4-amino-6-(4-(2-fluoroacrylamido)phe-nyl)pyrazolo[5,1-f][1,2,4]triazin-5-yl)-N-((1-fluorocyclo-propyl)methyl)-2-(methoxy-d3)benzamide]	< 5	≤ 10		A+ (Selectivity of FGFR1/FGFR2 greater or equal to 500)	A+ (Selectivity of FGFR3/FGFR2 greater or equal to 150)
C=CC(=O)Nc1ccc(-c2nn3ncnc(N)c3c2-c2ccc(Oc3cccc(C)n3)c(F)c2)cc1 [Compound 366]	< 5	≤ 10		A+ (Selectivity of FGFR1/FGFR2 greater or equal to 500)	A+ (Selectivity of FGFR3/FGFR2 greater or equal to 150)
C=CC(=O)Nc1ccc(-c2nn3ncnc(N)c3c2-c2ccc(C(=O)NCC3CCC3)c(OC)c2)cc1 [Compound 45, 4-(6-(4-acrylamidophenyl)-4-aminopyrazolo[5,1-f] [1,2,4]triazin-5-yl)-N-(cyclobutylmethyl)-2-methoxybenzamide]	< 5	≤ 10		B (Selectivity of FGFR1/FGFR2 less than 300 but greater than or equal to 200)	B (Selectivity of FGFR3/FGFR2 less than 100 but greater than or equal to 25)
C=C(F)C(=O)Nc1ccc(-c2nn3ncnc(N)c3c2-c2ccc(C(=O)NC3CC(F)C3)c(OC)c2)c(F)c1 (stereo not shown) [Compound 249]	< 5	≤ 10		C (Selectivity of FGFR1/FGFR2 less than 200 but greater than or equal to 100)	A+ (Selectivity of FGFR3/FGFR2 greater or equal to 150)
C=CC(=O)Nc1ccc(-c2nn3ncnc(N)c3c2-c2ccc(Oc3ccn(C)n3)c(F)c2)cc1 [Compound 402, N-(4-(4-amino-5-(3-fluoro-4-((1-methyl-1H-pyrazol-3-yl)oxy)phenyl)pyrazolo [5,1-f][1,2,4]triazin-6-yl)phenyl)acrylamide]	> 10	≤ 10		A+ (Selectivity of FGFR1/FGFR2 greater or equal to 500)	A+ (Selectivity of FGFR3/FGFR2 greater or equal to 150)
CC#CC(=O)Nc1ccc(-c2nn3ncnc(N)c3c2-c2ccc(C(=O)NC3(C(F)(F)F)CC3)c(OC)c2)cc1 [Compound 395]	> 10	≤ 10		A+ (Selectivity of FGFR1/FGFR2 greater or equal to 500)	B (Selectivity of FGFR3/FGFR2 less than 100 but greater than or equal to 25)
C=C(F)C(=O)Nc1ccc(-c2nn3ncnc(N)c3c2-c2ccc(C(=O)NC3CCC3)c(OC)c2)cc1 [Compound 95, 4-(4-amino-6-(4-(2-fluoroacrylamido)phe-nyl)pyrazolo[5,1-f][1,2,4]triazin-5-yl)-N-cyclobutyl-2-methoxybenzamide]	> 10	≤ 10		A+ (Selectivity of FGFR1/FGFR2 greater or equal to 500)	A+ (Selectivity of FGFR3/FGFR2 greater or equal to 150)
C=CC(=O)Nc1ccc(-c2c(-c3ccc(C(=O)NC4CCC4)cc3)c3c(N)ncc(C#N)c3n2C)cc1 [Compound 65, 4-(2-(4-acrylamidophenyl)-4-amino-7-cyano-1-methyl-1H-pyrrolo[3,2-c]pyridin-3-yl)-N-cyclobutylbenzamide]	< 5	≤ 10		A (Selectivity of FGFR1/FGFR2 less than 500 but greater than or equal to 300)	A+ (Selectivity of FGFR3/FGFR2 greater or equal to 150)
C=C(F)C(=O)Nc1ccc(-c2nn3ncnc(N)c3c2-c2ccc(C(=O)NCC(F)(F)F)c(OC)c2)c(OC)c1 [Compound 102, 4-(4-amino-6-(4-(2-fluoroacrylamido)-2-methoxyphenyl)pyrazolo[5,1-f][1,2,4]triazin-5-yl)-2-methoxy-N-(2,2,2-trifluoroethyl)benzamide]	> 10	≤ 10		B (Selectivity of FGFR1/FGFR2 less than 300 but greater than or equal to 200)	B (Selectivity of FGFR3/FGFR2 less than 100 but greater than or equal to 25)
C=CC(=O)Nc1ccc(-c2nn3ncnc(N)c3c2-c2ccc(C(=O)NC3(C)CC3)c(OC)c2)cc1 [Compound 162, 4-(6-(4-acrylamidophenyl)-4-aminopyrazolo[5,1-f] [1,2,4]triazin-5-yl)-2-methoxy-N-(1-methylcyclopropyl)benzamide]	< 5	≤ 10		A+ (Selectivity of FGFR1/FGFR2 greater or equal to 500)	A+ (Selectivity of FGFR3/FGFR2 greater or equal to 150)
C=C(F)C(=O)Nc1ccc(-c2c(-c3ccc(C(=O)NC4CC4)c(OC)c3)c3c(N)ncc(C#N)c3n2C)cc1 [Compound 104, 4-(4-amino-7-cyano-2-(4-(2-fluoroacrylamido)phenyl)-1-methyl-1H-pyrrolo[3,2-c]pyridin-3-yl)-N-cyclopropyl-2-methoxybenzamide]	5 to 10	≤ 10		A+ (Selectivity of FGFR1/FGFR2 greater or equal to 500)	A+ (Selectivity of FGFR3/FGFR2 greater or equal to 150)
